According to ChEMBL document CHEMBL1201862, “PubChem BioAssay data set” (2004):
Activity calls are given as the source filed them.

Molecular target: Cytochrome P450 2C9 (Homo sapiens, UniProt P11712)
Test: not given
Settings: not given

Sequence of Cytochrome P450 2C9 (P11712 whole entry): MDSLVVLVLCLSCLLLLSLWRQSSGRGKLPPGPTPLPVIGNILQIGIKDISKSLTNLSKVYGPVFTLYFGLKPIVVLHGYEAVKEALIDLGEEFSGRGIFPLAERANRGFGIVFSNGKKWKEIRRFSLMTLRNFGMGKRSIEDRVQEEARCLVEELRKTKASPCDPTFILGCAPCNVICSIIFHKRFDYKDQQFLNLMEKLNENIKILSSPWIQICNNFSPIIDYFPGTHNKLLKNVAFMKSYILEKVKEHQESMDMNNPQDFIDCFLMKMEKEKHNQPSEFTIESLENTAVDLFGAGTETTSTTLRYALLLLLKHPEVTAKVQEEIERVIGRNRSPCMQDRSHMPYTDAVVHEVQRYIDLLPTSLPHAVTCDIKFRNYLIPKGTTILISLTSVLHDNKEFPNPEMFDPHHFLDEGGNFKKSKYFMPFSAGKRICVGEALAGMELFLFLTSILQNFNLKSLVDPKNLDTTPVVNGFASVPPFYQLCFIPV

SMILES	AC50
CCN(CC)S(=O)(=O)c1cc(C(=O)OC)ccc1Cl	inconclusive
Cc1[nH]c(=O)c(C(=O)/C=C/c2ccccc2F)c2c1CCCC2	inconclusive
O=C(O)CCCC[C@H]1CCSS1	inconclusive
COc1ccc(/C=C(\C#N)C(=O)NCC2CCCO2)cc1OC (stereo unspecified)	inconclusive
COc1ccc(Br)cc1/C=C/C(=O)Nc1c(C)cccc1C	inconclusive
Cc1c(C(=O)Nc2ccc(OCc3ccccc3)cc2)cccc1[N+](=O)[O-]	inconclusive
N#C/C(=C\c1c[nH]nc1-c1ccccc1)C(=O)NC1CCCCCC1	inconclusive
COC(=O)c1cccc(NC(=O)/C=C/c2cccc([N+](=O)[O-])c2)c1	inconclusive

Molecular target: Cytochrome P450 2C19 (Homo sapiens, UniProt P33261)
Sequence (P33261 whole entry): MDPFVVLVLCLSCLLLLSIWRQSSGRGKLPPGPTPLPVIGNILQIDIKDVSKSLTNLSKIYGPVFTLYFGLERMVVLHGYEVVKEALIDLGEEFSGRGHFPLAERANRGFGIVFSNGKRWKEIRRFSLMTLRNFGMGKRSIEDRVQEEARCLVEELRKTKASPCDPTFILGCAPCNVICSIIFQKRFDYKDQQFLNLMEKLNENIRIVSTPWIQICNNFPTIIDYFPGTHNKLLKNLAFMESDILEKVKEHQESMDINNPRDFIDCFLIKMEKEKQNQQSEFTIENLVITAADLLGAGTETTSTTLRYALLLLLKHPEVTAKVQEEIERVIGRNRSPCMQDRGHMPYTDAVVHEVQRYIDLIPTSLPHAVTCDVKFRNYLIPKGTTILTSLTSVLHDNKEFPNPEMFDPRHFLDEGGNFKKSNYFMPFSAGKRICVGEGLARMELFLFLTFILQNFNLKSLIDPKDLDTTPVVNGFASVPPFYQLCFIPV
Test: Cytochrome panel assay with activity outcomes. Panel member name: p450-cyp2c19 Compounds with AC50 equal or less than 10 uM are considered active
Assay type: functional
Settings: read-out: AC50

SMILES	AC50
COC(=O)c1cccc(NC(=O)/C=C/c2cccc([N+](=O)[O-])c2)c1	5.01 µM (inconclusive)

Tested on: H9c2;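 also: confirmatory concentration-response retest of ultra-high-throughput screening hits for modulation of myocardial damage; cell death induced by hydrogen peroxide oxidative stress; compound pretreatment for 60 min then peroxide exposure for 2 h; potency is for protecting the cells against peroxide damage rather than for killing them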
Test: cells
Assay type: functional, cell-based
Settings: Rattus norvegicus, H9c2, Myocardium

SMILES	IC50
COCCN1Cc2cccc(C(=O)Nc3cccc(-c4nc5ccccc5[nH]4)c3)c2C1=O	> 79 µM (inactive)

Molecular target: T1, Protein skinhead-1 (Caenorhabditis elegans, UniProt P34707)
T1 sequence (P34707 whole entry): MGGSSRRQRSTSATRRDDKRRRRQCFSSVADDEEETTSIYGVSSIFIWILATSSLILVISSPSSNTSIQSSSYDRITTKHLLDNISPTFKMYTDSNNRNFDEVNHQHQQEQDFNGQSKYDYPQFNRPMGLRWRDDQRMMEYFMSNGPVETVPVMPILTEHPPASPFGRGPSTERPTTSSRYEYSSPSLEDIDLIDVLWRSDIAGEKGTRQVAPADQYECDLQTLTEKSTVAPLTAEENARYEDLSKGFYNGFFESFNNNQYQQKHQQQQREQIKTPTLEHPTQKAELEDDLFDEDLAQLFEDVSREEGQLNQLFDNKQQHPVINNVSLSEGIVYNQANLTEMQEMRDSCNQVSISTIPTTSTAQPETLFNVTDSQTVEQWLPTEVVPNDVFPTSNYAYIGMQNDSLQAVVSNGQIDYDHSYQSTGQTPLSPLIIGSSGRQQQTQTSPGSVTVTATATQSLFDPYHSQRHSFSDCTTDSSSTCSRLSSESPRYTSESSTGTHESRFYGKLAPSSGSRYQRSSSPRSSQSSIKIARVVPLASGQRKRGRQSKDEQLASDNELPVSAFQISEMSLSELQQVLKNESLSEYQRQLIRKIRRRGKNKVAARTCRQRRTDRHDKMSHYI
Test: not given
Assay type: functional
Settings: not given

SMILES	IC50
COc1ccc(/C=C(\C#N)C(=O)NCC2CCCO2)cc1OC (stereo unspecified)	> 100 µM (inactive)

Tested on: not listed separately
Test: intracellular Trypanosoma cruzi inhibitors in host cells – cell-based, plate reader, cherry-pick samples, set 3, dose response (AID 651818);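 also: compounds incubated with infected cells for about four days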
Assay type: functional
Settings: not given

SMILES	AC50
C[C@@H]1CN([C@H](C)CO)C(=O)Cc2cc(NC(=O)Nc3ccc4c(c3)OCO4)ccc2O[C@H]1CN(C)Cc1ccc(Oc2ccccc2)cc1	3.08 µM (active)
C[C@@H]1CN([C@H](C)CO)C(=O)Cc2cc(NS(=O)(=O)c3ccc(F)cc3)ccc2O[C@@H]1CN(C)S(=O)(=O)c1ccccc1	5.74 µM (active)
C[C@H](CO)N1C[C@H](C)[C@H](CN(C)Cc2ccc(Cl)c(Cl)c2)Oc2c(NS(C)(=O)=O)cccc2C1=O	17.3 µM (active)
C[C@@H]1CN([C@@H](C)CO)C(=O)c2cc(NS(=O)(=O)c3ccc(F)cc3)ccc2O[C@H]1CN(C)Cc1ccc(C(=O)Nc2ccccc2N)cc1	3.6 µM (active)
C[C@H]1CN([C@@H](C)CO)C(=O)c2cc(NC(=O)Cc3cn(C)c4ccccc34)ccc2O[C@H]1CN(C)Cc1ccc(Oc2ccccc2)cc1	6.34 µM (active)

Molecular target: T2, Cytochrome P450 1A2 (Homo sapiens, UniProt P05177);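 also: PubChem cytochrome P450 panel assay, CYP1A2 panel member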
T2 sequence (P05177 whole entry): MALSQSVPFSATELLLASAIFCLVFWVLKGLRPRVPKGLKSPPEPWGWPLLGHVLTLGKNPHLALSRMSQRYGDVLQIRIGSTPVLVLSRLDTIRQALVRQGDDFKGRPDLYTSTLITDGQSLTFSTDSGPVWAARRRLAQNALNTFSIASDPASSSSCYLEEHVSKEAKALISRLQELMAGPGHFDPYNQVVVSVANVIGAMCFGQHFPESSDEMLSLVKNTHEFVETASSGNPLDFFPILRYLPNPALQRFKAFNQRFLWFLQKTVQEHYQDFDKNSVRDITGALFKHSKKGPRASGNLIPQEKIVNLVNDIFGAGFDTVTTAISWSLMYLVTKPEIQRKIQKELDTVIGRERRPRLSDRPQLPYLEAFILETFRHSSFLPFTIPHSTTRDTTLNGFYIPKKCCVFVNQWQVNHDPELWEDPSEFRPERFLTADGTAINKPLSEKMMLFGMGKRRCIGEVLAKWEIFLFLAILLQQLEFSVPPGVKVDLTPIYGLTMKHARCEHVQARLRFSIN
Test: not given
Settings: not given

SMILES	AC50
COc1ccc(/C=C(\C#N)C(=O)NCC2CCCO2)cc1OC (stereo unspecified)	22.4 µM (inconclusive)
COc1ccc(Br)cc1/C=C/C(=O)Nc1c(C)cccc1C	22.4 µM (inconclusive)
COC(=O)c1cccc(NC(=O)/C=C/c2cccc([N+](=O)[O-])c2)c1	2.24 µM (inconclusive)

Tested on: Vero
Test: cells
Assay type: functional
Settings: Chlorocebus sabaeus

SMILES	CC50
COc1cccc(C2=CC(c3cc(OC)ccc3OC)n3nnnc3N2)c1 (stereo unspecified)	14.4 µM (active)
C=CCN1C(=O)/C(=C/c2ccc3c(c2)CCCN3CCC)C(=O)NC1=S	18.3 µM (active)
COCCN1Cc2cccc(C(=O)Nc3cccc(-c4nc5ccccc5[nH]4)c3)c2C1=O	> 25 µM (active)
C=CC[C@@H](CC(=O)N(CCO)Cc1ccccc1)C(=O)N[C@@H](COC(=O)[C@@H](CC=C)Cc1ccc(F)cc1)Cc1c[nH]c2ccccc12	18 µM (active)
CCOC(=O)c1c(NC(=O)CSc2c[nH]c3ccccc23)sc2c1CCCC2	> 25 µM (active)

Molecular target: T3, RNA-binding protein pos-1 (Caenorhabditis elegans, UniProt G5EF15)
T3 sequence (G5EF15 whole entry): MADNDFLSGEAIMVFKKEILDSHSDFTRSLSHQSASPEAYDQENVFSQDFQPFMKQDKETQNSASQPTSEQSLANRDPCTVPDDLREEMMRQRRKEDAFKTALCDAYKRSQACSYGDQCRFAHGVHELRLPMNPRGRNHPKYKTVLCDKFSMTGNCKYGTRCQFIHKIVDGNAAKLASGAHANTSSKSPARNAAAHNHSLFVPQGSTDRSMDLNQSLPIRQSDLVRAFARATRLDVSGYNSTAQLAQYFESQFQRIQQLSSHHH
Test: inhibitors of POS-1/mex-3 RNA binding, dose response, biochemical, fluorescence polarization (AID 1964);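 also: purified POS-1 fused to maltose binding protein made in E. coli; potency of compounds blocking POS-1 binding to fluorescent RNA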
Settings: not given

SMILES	EC50
COc1ccc(/C=C(\C#N)C(=O)NCC2CCCO2)cc1OC (stereo unspecified)	> 300 µM (not active)

Molecular target: T4, Zinc finger protein mex-5 (Caenorhabditis elegans, UniProt Q9XUB2)
T4 sequence (Q9XUB2 whole entry): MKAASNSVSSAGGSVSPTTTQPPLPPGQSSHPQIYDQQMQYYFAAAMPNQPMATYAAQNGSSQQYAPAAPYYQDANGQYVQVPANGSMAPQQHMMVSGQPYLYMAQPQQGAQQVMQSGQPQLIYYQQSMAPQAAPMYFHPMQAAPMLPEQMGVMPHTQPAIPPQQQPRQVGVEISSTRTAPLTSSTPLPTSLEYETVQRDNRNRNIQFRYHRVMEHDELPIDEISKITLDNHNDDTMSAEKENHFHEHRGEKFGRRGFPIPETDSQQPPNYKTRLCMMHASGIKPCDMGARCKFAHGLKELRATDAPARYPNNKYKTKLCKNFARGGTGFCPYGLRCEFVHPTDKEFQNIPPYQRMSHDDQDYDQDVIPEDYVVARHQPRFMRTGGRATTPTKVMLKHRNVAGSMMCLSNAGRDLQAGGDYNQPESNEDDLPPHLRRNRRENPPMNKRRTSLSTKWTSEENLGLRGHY
Test: MEX-5/TCR-2 RNA interaction inhibitors, dose response, biochemical, C. elegans, fluorescence polarization (AID 1960)
Settings: not given

SMILES	EC50
COc1ccc(/C=C(\C#N)C(=O)NCC2CCCO2)cc1OC (stereo unspecified)	> 300 µM (not active)
